In patent US20230381142A1, “ANTILEISHMANIAL COMPOUNDS, COMPOSITIONS AND USE THEREOF” (TRUSTEES OF BOSTON UNIVERSITY, priority 2022, published 2023):
In brackets after ≈: the same amount, converted by molar mass. Where two headings read alike, the source gives them in different places.

Columns and labels:
[1] = Kinetic aqueous solubility by CLND; format: physicochemical; details: kinetic from dmso stock, high-throughput CLND
Procedure: Solubility of compounds using ChemiLuminescent Nitrogen Detection (CLND) was measured as described. Solubility of compounds using Charged Aerosol Detection (CAD) was measured as described. Solubility of solid compounds in Fasted Simulated Intestinal Fluid (FaSSIF) was measured as described.

[2] = system: L. donovani intracellular amastigotes infecting THP-1 macrophages; test: GSK intramacrophage L. donovani assay (LD AMMAC, inMac; Assay Conditions C); format: cell-based; details: Leishmania donovani
How it was run: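 EC50 values come from counting amastigotes per infected THP-1 macrophage (AMMAC). Parallel read-outs give percentage of infected cells per well (INFCELL) and a macrophage-number toxicity EC50 (MAC).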

[3] = system: HepG2 cells; test: HepG2 cytotoxicity; format: cell-based; details: Homo sapiens; toxicity against HepG2 cells
[4] = system: L. donovani intracellular amastigotes in B10R cells; test: UCSD L. donovani infection assay (Assay Conditions D); format: cell-based; details: Leishmania donovani
How it was run: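 Compounds, either single-point at 10 μM or 10-point 2-fold series (3 technical, 2 biological replicates), were incubated 72 h at 37° C. with B10R host cells co-seeded with day-7 stationary L. donovani promastigotes (20:1). DAPI-stained nuclei imaging yielded intracellular parasite EC50 and host-cell CC50.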

[5] = system: host THP-1 macrophages; test: GSK inMac assay, host cell toxicity readout (LD MAC); format: cell-based, human
How it was run: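 MAC EC50 reflects THP-1 host cell counts, measured within GSK's inMac L. donovani infection assay that also scores intracellular amastigotes and infected-cell percentage.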

[6] = target: human serum albumin (Homo sapiens, UniProt P02768); test: Human serum albumin (HSA) binding, chromatographic; format: in vitro ADME
Procedure: The percentage of compound bound to human serum albumin was measured using a chromatographic method as described. Briefly, each compound was assayed on an immobilized HSA column and gradient retention times measured, with chromatographic peak detection by UV. Each retention time was then converted to a % HSA bound value using a calibration set of compounds with a known % HSA binding.

[7] = system: L. donovani intracellular amastigotes infecting THP-1 cells; test: High content intracellular amastigote assay in THP-1 cells (Assay Conditions B; CDIPD screen); format: cell-based, Leishmania donovani; details: Leishmania donovani; THP-1 host cells
How it was run: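 THP-1 cells differentiated with 0.1 μM PMA for 48 h, then infected with stationary-phase promastigotes (L. major LV39 or L. donovani 1S/Cl2D) at 1:15 parasite-cell ratio. Compounds applied for 72 h at 37° C. Cells formaldehyde-fixed, DAPI-stained, imaged to count amastigotes and host cells.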

[8] = growth inhibition of L. donovani intracellular amastigotes infecting THP-1 macrophages, read-out: LD AMMAC EC50
[9] = Homo sapiens, THP-1, cytotoxicity against host THP-1 macrophages

Sequence of human serum albumin (P02768 25-609): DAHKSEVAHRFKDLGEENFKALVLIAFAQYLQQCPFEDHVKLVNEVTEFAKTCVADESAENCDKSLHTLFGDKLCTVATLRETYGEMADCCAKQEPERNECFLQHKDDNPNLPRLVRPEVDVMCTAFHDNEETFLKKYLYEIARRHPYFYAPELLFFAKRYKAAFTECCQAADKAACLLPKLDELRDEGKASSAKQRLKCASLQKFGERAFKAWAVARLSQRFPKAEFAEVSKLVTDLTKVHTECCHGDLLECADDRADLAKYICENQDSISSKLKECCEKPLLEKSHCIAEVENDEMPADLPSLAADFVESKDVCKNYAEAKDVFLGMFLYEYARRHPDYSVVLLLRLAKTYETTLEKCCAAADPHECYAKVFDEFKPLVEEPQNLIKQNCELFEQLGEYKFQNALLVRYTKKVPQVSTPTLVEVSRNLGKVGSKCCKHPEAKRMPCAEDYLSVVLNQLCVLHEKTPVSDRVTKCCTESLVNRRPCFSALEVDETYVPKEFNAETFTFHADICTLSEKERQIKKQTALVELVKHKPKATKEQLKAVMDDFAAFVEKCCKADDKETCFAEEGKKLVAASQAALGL

solubility ([1]; aqueous medium (not further specified)) | IC50 ([2]; THP-1) | EC50 [2, 8] | IC50 [4] | HSA Binding [6] | solubility ([1]; aqueous medium) | EC50 ([2]; THP-1, GSK lead selection criteria, read-out: Antiparasitic activity EC50, L. donovani amastigotes) | EC50 ([4]; average of two biological replicates, read-out: L. donovani EC50 (UCSD assay)) | Compound | EC50 [3] | EC50 [5, 9] | EC50 [7] | EC50 ([5]; cytotoxicity against host THP-1 macrophages, listed as rac-1)
90 µM (≈ 32.5 µg/mL) | 3.2 µM | 3.2 µM | 1.1 µM | 95.8% |  |  |  | COc1ccc(N2C(=O)c3[nH]nc(CC(C)C)c3C2c2ccccc2)cc1 (stereo not shown) [Compound 2] | 79.4 µM | 31.6 µM | 3.7 µM | 
 | 2.5 µM | 2.5 µM | 0.8 µM | 96.4% | 107 µM (≈ 40.6 µg/mL) | 2.5 µM | 0.82 µM | COc1ccc(N2C(=O)c3[nH]nc(CC(C)C)c3C2c2ccc(F)cc2)cc1 (racemic) [Compound 1, 4-(4-fluorophenyl)-3-isobutyl-5-(4-methoxyphenyl)-4,5-dihydropyrrolo[3,4-c]pyrazol-6(1H)-one] | 63.1 µM | 15.8 µM | 2.5 µM | 15.9 µM
